{"source": "patent US10604476B2", "about": "“Fluorinated amide derivatives and their uses as therapeutic agents” (Trillium Therapeutics Inc., priority 2015, dated 2020)", "key": {"audiogenic seizure (AGS)": {"system": "audiogenic seizure (AGS)", "assay": "Frings AGS-susceptible mouse model", "type": "in vivo", "settings": "ip, read-out: ED50, block of AGS", "source_text": "Frings audiogenic seizure (AGS)-susceptible mice model examines the ability of an investigational drug to alter the onset and/or severity of seizures in a genetic mouse model of seizure susceptibility. Mice are genetically susceptible to sound-induced reflex seizures. Their seizure phenotype is characterized by wild running, loss of righting reflex, tonic flexion, and tonic extension in response to high-intensity sound stimulation. […] For example, the prototypical anticonvulsants phenytoin and ethosuximide display widely divergent clinical spectrums in humans, but are both active against sound-induced seizures in mice. Yet, the preclinical utility of this animal model rests in the useful information that can be obtained within a genetically susceptible model of seizures. Further, efficacy in this model provides proof of concept of brain bioavailability following systemic administration. […] At the time of peak effect as determined in the MES test (Test 4 in CF1 mice), individual mice are placed in a round plexiglass jar (diameter, 15 cm; height, 18 cm) and exposed to a sound stimulus of 110 decibels (11 KHz) delivered for 20 sec. […] The severity of a seizure may also be quantitated by assigning a numerical score to the observed response, e.g. no response—0; wild running for <10 sec—1; wild running for >10 sec—2; clonic seizure—3; forelimb extension/hind limb flexion—4; tonic seizure—5."}, "[1]": {"system": "LTG-resistant amygdala kindled seizures", "assay": "Lamotrigine (LTG) resistant amygdala kindled seizure rat model", "type": "in vivo", "settings": "for Duration (sec) ± SD (afterdischarge) / N/F, number of animals active over the number tested / Seizure Score ± SEM: 0.25 hr", "source_text": "The LTG-resistant amygdala kindled rat model is useful for not only identifying compounds effective against secondarily generalized partial seizures, but also allows for the differentiation of compounds that may be effective in therapy-resistant patients. […] Conversely, valproate can both prevent kindling development and block the expression of fully kindled seizures. The addition of the traditional ASDs, carbamazepine or lamotrigine, during the development of kindled seizures in this model will ultimately impair the effectiveness of lamotrigine against a fully expressed kindled seizure. […] This model may serve as a means to identify compounds which may be effective against therapy-resistant seizures. Anesthetized male Sprague-Dawley rats (250-300 g) are surgically implanted with an electrode into the left amygdala. Animals are then allowed to recover for one week before commencing kindling. The kindling procedure consists of delivering a 200 μAmp stimulus (suprathreshold) daily until all animals in both treatment groups display consistent Stage 4 or 5 seizures. One week after all animals are kindled, the animals receive a challenge dose of LTG (30 mg/kg, i.p.) before being stimulated to confirm the LTG sensitivity of the vehicle-treated control animals, as well as the LTG-resistance of the LTG-treated group. The animals are then allowed a washout of 3 days. On day 3 of the washout, the animals are pre-stimulated to ensure recovery of the fully kindled seizure. On day 4, kindled rats are challenged with a dose of an investigational agent (the dose that produced minimal motor impairment) and then challenged with the kindling stimulus at the predetermined TPE of the investigational drug. […] For this study, the ability of a candidate substance to reduce afterdischarge duration (ADD) and behavioral seizure scores (BSS) is quantitated by varying the dose between 0 and 100% effect. Unlike other acute seizure tests conducted by the ETSP, each kindled rat is allowed at least 3-4 days between tests to “washout” any investigational compound after testing. The average seizure scores±S.E.M. and afterdischarge duration (ADD) are noted, as are the number of animals protected from seizure (defined as a Racine score<3) over the number of animals tested.\nThe following procedure is used for surgical implantation of Electrodes. Male Spraque-Dawey rats are anesthetized using 1-3% isoflurane or a Ketamine/Xylazine cocktail. Ketamine is provided as 100 mg/ml solution, and dose 50 mg/kg given i.p. Xylazine is provided as 100 mg/ml solution, and dose 20 mg/kg given i.p. Mix the two solutions together in one syringe and administer i.p as one injection. Rat is monitored through surgery. If the rat is responsive to a tail pinch administer half the dose of Ketamine/xylazine or increase the isoflurane percentage. Administer buprenorphine at 0.02 mg/kg s.c. for pain management. An electric razor is used to shave the surface of the head. The rat is placed on an external heat source on the stereotaxic apparatus such that the height of the incisor bar and the positioning of the ear bars ensure consistency with the reference atlas. The entire scalp is scrubbed with betadine (3×) and wiped with alcohol. Ophthalmic ointment is applied to each eye. All instruments are sterilized via autoclave before beginning surgery. During surgery instruments are placed on a sterile drape. For subsequent surgeries on the same day, instruments can be placed into the hot bead sterilizer between surgeries. Stainless steel screws and electrodes are sterilized in 70% alcohol and place on a sterile drape. A sterile scalpel blade is used to make a midline scalp incision beginning from a point even with the eyes and extending back to and imaginary line connecting the ear. The fascia should be gently split and pulled away by from the scalp. The incision can be held open using retractors/forceps. […]"}}, "data": [{"smiles": "C[C@@H](Oc1cc(Cl)cc(C(F)(F)F)c1)C(N)=O", "note": "[I(D), (2R)-2-[3-chloro-5-(trifluoromethyl)-phenoxy]propanamide]", "values": [{"measurement": "ED50", "setting": "audiogenic seizure (AGS)", "value": "28.9 ± 3.08", "unit": "mg/kg"}, {"measurement": "Duration (sec) ± SD (afterdischarge)", "setting": "[1]; 10 mg/kg i.p.", "value": "158.5 ± 21.5", "unit": "s"}, {"measurement": "N/F, number of animals active over the number tested", "setting": "[1]; 10 mg/kg i.p.", "value": "0/2"}, {"measurement": "Seizure Score ± SEM", "setting": "[1]; 10 mg/kg i.p.", "value": "5 ± 0.0"}, {"measurement": "Duration (sec) ± SD (afterdischarge)", "setting": "[1]; 25 mg/kg i.p.", "value": "71.0 ± 13.61", "unit": "s"}, {"measurement": "N/F, number of animals active over the number tested", "setting": "[1]; 25 mg/kg i.p.", "value": "1/5"}, {"measurement": "Seizure Score ± SEM", "setting": "[1]; 25 mg/kg i.p.", "value": "4.4 ± 0.6"}, {"measurement": "Duration (sec) ± SD (afterdischarge)", "setting": "[1]; 37.5 mg/kg i.p.", "value": "54.2 ± 10.38", "unit": "s"}, {"measurement": "N/F, number of animals active over the number tested", "setting": "[1]; 37.5 mg/kg i.p.", "value": "3/5"}, {"measurement": "Seizure Score ± SEM", "setting": "[1]; 37.5 mg/kg i.p.", "value": "3.2 ± 0.75"}, {"measurement": "Duration (sec) ± SD (afterdischarge)", "setting": "[1]; 50 mg/kg i.p.", "value": "71.0 ± 13.61", "unit": "s"}, {"measurement": "N/F, number of animals active over the number tested", "setting": "[1]; 50 mg/kg i.p.", "value": "6/6"}, {"measurement": "Seizure Score ± SEM", "setting": "[1]; 50 mg/kg i.p.", "value": "0.83 ± 0.17"}, {"measurement": "EC50, reduction of seizure score (seizure severity)", "setting": "[1]; i.p., LTG-resistant kindled rats", "value": "32.55 ± 3.58", "unit": "mg/kg"}]}]}
